Test results published in ChEMBL document CHEMBL1201862, “PubChem BioAssay data set” (2004).
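Method: 48-hour compound exposure of cells in 96-well plates, five concentrations, linear interpolation of endpoints. GI50: concentration for 50% inhibition of growth.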 The source made the active and inactive calls. Rule as the data show it: active = GI50 up to about 1.1 µM and inactive = higher.

Legend:
Experiment in all cases: NCI tumour cell line growth inhibition, 48 h
SF-268 = system: SF-268
ACHN = system: ACHN
HOP-92 = system: HOP-92
TK-10 = system: TK-10
SR = system: SR
NCI-H460 = system: NCI-H460
OVCAR-3 = system: OVCAR-3
HL-60 = system: HL-60
RXF 393 = system: RXF 393
SF-539 = system: SF-539
CAKI-1 = system: CAKI-1
HCT-116 = system: HCT-116
HCC 2998 = system: HCC 2998
NCI-H23 = system: NCI-H23
SW-620 = system: SW-620
SK-MEL-5 = system: SK-MEL-5
COLO 205 = system: COLO 205
MDA-MB-435 = system: MDA-MB-435
MCF7 = system: MCF7

Measured: GI50

NNC(=S)N/N=C(\c1nc2ccc(Cl)cc2nc1O)C(O)c1cccc([N+](=O)[O-])c1 (stereo unspecified)
inactive: SF-268 > 52.1 µM | ACHN > 100 µM | HOP-92 > 86.3 µM | TK-10 > 100 µM | SR 15.9 µM | NCI-H460 > 75 µM | OVCAR-3 > 100 µM | HL-60 > 52.2 µM | RXF 393 > 94.4 µM | SF-539 > 31.8 µM | CAKI-1 > 74.1 µM | HCT-116 > 31.6 µM | HCC 2998 > 100 µM | NCI-H23 > 42.8 µM | SW-620 20.9 µM | SK-MEL-5 > 100 µM | COLO 205 > 42.7 µM

O=C(Cn1c(-c2ccccc2)cc2ccccc21)N1CCOCC1
inactive: MDA-MB-435 > 100 µM | SF-268 34.4 µM | ACHN > 100 µM | HOP-92 > 100 µM | TK-10 > 100 µM | MCF7 > 100 µM | NCI-H460 > 100 µM | OVCAR-3 > 100 µM | HL-60 > 100 µM | RXF 393 > 100 µM | SF-539 67.1 µM | CAKI-1 > 100 µM | HCT-116 > 100 µM | HCC 2998 > 100 µM | NCI-H23 > 100 µM | SW-620 > 100 µM | SK-MEL-5 > 100 µM | COLO 205 > 100 µM

COc1ccc(NC(C)=O)cc1C1CCC(=O)N1 (stereo unspecified)
inactive: MDA-MB-435 > 100 µM | SF-268 > 100 µM | ACHN > 100 µM | HOP-92 > 100 µM | TK-10 > 100 µM | MCF7 > 100 µM | NCI-H460 > 100 µM | OVCAR-3 > 100 µM | HL-60 > 100 µM | SF-539 > 100 µM | CAKI-1 > 100 µM | HCT-116 > 100 µM | HCC 2998 > 100 µM | NCI-H23 > 100 µM | SW-620 > 100 µM | SK-MEL-5 > 100 µM | COLO 205 > 100 µM

Cc1ccccc1NC(=O)C(=O)C(C#N)c1ccccc1C (stereo unspecified)
inactive: SF-268 > 100 µM | ACHN > 100 µM | HOP-92 > 100 µM | TK-10 > 100 µM | SR > 100 µM | NCI-H460 38.2 µM | OVCAR-3 > 100 µM | HL-60 53.3 µM | RXF 393 > 100 µM | SF-539 > 100 µM | CAKI-1 > 100 µM | HCT-116 > 100 µM | HCC 2998 > 100 µM | NCI-H23 > 100 µM | SW-620 19.5 µM | SK-MEL-5 > 100 µM | COLO 205 46.8 µM

Cn1cc(C(=O)C2CCCCC2)ccc1=O
inactive: SF-268 > 100 µM | ACHN > 100 µM | HOP-92 > 100 µM | TK-10 > 100 µM | SR > 100 µM | NCI-H460 > 100 µM | OVCAR-3 > 100 µM | HL-60 > 100 µM | RXF 393 > 100 µM | SF-539 > 100 µM | CAKI-1 > 100 µM | HCT-116 > 100 µM | HCC 2998 > 100 µM | NCI-H23 > 100 µM | SW-620 > 100 µM | SK-MEL-5 > 100 µM | COLO 205 > 100 µM

COC(=O)/C(C=O)=C/Sc1ccccc1
inactive: SF-268 11 µM | ACHN 26.4 µM | HOP-92 52.6 µM | TK-10 40.6 µM | SR 40.1 µM | NCI-H460 32.1 µM | OVCAR-3 21.3 µM | HL-60 45.5 µM | RXF 393 15.3 µM | SF-539 18 µM | CAKI-1 24.2 µM | HCT-116 22.5 µM | HCC 2998 37.8 µM | NCI-H23 36.4 µM | SW-620 37.9 µM | SK-MEL-5 14.2 µM | COLO 205 20 µM

Cc1c2c(cc3c(=O)ccn(CCN(C)C)c13)c(=O)ccn2CCN(C)C
inactive: SF-268 6.93 µM | ACHN 5.4 µM | HOP-92 6.1 µM | TK-10 11.7 µM | SR 10.6 µM | NCI-H460 3.69 µM | OVCAR-3 14.2 µM | HL-60 2.24 µM | RXF 393 14.2 µM | SF-539 15 µM | CAKI-1 16.6 µM | HCT-116 6.35 µM | HCC 2998 6.19 µM | NCI-H23 14.9 µM | SW-620 3.81 µM | SK-MEL-5 20 µM | COLO 205 11.5 µM

FC(F)(F)C1(Br)C(c2ccccc2)=C1c1ccccc1
inactive: SF-268 19.3 µM | ACHN 16.8 µM | HOP-92 16.7 µM | TK-10 22.9 µM | SR 5.11 µM | NCI-H460 24.7 µM | OVCAR-3 15.7 µM | HL-60 7.28 µM | RXF 393 15.5 µM | SF-539 17.9 µM | CAKI-1 23.8 µM | HCT-116 6.7 µM | HCC 2998 16.9 µM | NCI-H23 16.6 µM | SW-620 16.5 µM | SK-MEL-5 15.4 µM | COLO 205 18.8 µM

O=C1/C(=C/c2ccc(O)cc2)NC(=S)N1CN1CCCCC1
inactive: MDA-MB-435 70.3 µM | SF-268 89.1 µM | ACHN 45.7 µM | HOP-92 54.6 µM | TK-10 94 µM | SR 49.2 µM | MCF7 21.3 µM | OVCAR-3 > 100 µM | HL-60 71.6 µM | HCT-116 45.8 µM | NCI-H23 > 100 µM | SW-620 36.6 µM | SK-MEL-5 27.4 µM | COLO 205 21 µM

C/C1=C\CC[C@@]2(C)O[C@@H]2[C@H]2OC(=O)C(C)C2C[C@H]1O (stereo partly specified)
inactive: MDA-MB-435 > 100 µM | SF-268 > 100 µM | ACHN > 100 µM | HOP-92 > 100 µM | TK-10 > 100 µM | SR > 100 µM | MCF7 > 100 µM | NCI-H460 > 100 µM | RXF 393 > 100 µM | CAKI-1 > 100 µM | HCT-116 > 100 µM | HCC 2998 > 100 µM | NCI-H23 > 100 µM | SW-620 > 100 µM | SK-MEL-5 22.5 µM | COLO 205 > 100 µM

C=CCn1c2c(sc1=S)C(S)NC=N2 (stereo unspecified)
inactive: SF-268 4.65 µM | ACHN 71.3 µM | HOP-92 16.8 µM | TK-10 > 100 µM | SR 91.8 µM | NCI-H460 > 100 µM | OVCAR-3 94.2 µM | HL-60 > 100 µM | RXF 393 > 100 µM | SF-539 85.1 µM | CAKI-1 > 100 µM | HCT-116 77.3 µM | HCC 2998 26.5 µM | NCI-H23 90.6 µM | SW-620 > 100 µM | SK-MEL-5 54.5 µM | COLO 205 > 100 µM

C=C1C(=O)OC2/C=C(\C=O)CC/C=C(\C)C(O)C[C@@H]12 (stereo partly specified)
inactive: SF-268 8.61 µM | ACHN 7.35 µM | HOP-92 5.9 µM | TK-10 12.3 µM | SR 2.8 µM | NCI-H460 13.3 µM | OVCAR-3 9.46 µM | HL-60 2.86 µM | RXF 393 2.84 µM | SF-539 14.2 µM | CAKI-1 > 10 µM | HCT-116 1.68 µM | HCC 2998 17.8 µM | NCI-H23 5.18 µM | SW-620 2.72 µM | SK-MEL-5 9.27 µM | COLO 205 3.94 µM
